Source: patent US11760775B2, “Steroids and protein-conjugates thereof” (Regeneron Pharmaceuticals, Inc., priority 2016, dated 2023)
Values joined by “and” are separate entries in the source; they are usually repeats but may differ in a detail not shown here. Equal values may be shown once. Where a name gives a salt, the structure may show the parent alone. Read-outs that look alike come from different tables or passages of the source.

Columns and labels:
[1] = tested on: GR activation in 293/PRLR/GRE-Luc cells (HEK293/9xUAS-Luc2P/pBind-GR/PRLR-HA high cells); test: GR co-activator luciferase reporter cell based assay in 293/PRLR/GRE-Luc cells; parameters: species or system human; conditions: for EC50: Homo sapiens
Summary of the method: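 EC50 was derived from a 10-point, four-parameter logistic fit of One-Glo luminescence. The reporter is driven by Gal4UAS through GR ligand-binding domain fused to Gal4 DBD in PRLR-expressing 293 cells, after ADC internalization or free steroid exposure. Activation below 10% of the free-payload maximum counts as minimal.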

[2] = tested on: GR activation in 293/GRE-Luc cells (293_PBind GR/UAS-Luc); test: Luciferase reporter assay in antigen negative 293/GRE-Luc cells; format: cell-based, human; conditions: Homo sapiens, 72 h, read-out: EC50 in 293/GRE-Luc (M)
[3] = Pharmacokinetics of 4b and 6-I in mice (blood concentration-time); format: in vivo, C57BL/6j mice; conditions: in vivo
[4] = tested on: LPS-induced cytokine release (TNF-α); test: Mouse model of LPS induced cytokine release (TNF-α in plasma); format: in vivo, C57BL/6j mice
[5] = tested on: CD11c+ splenic DCs; test: Ex vivo LPS-induced cytokine production in mouse splenic CD11c+ dendritic cells; format: cell-based, C57Bl/6 mice; parameters: TNF-a / IL-12p70 / IL-1b / IL-6 / KC-GRO: unit not given here
Description: (§1) Supernatants were collected into 96-well round bottom tissue culture plates 24 hours post-LPS challenge and stored at −20° C. until further analysis. Cytokine concentrations in the supernatants were measured using a Pro-inflammatory Panel 1 (mouse) multiplex immunoassay kit (MesoScale Discovery, Cat #K15048D) according to manufacturer's instructions or Pro-inflammatory Panel 1 (human) multiplex immunoassay kit (MesoScale Discovery, Cat #K15049D). In brief, 50 μL/well of calibrators and samples (diluted in Diluent 1:2) were added to the plates pre-coated with capture antibodies and incubated at room temperature while shaking at 700 rpm for 2 hours. The plates were then washed 3 times with 1×PBS containing 0.05% (w/v) Tween-20, followed by the addition of 25 μL of Detection Antibody Solution diluted in Diluent 45. After 2-hour incubation at room temperature while shaking, the plates were washed 3 times, and 150 μL of 2× Read Buffer was added to each well. Electrochemiluminescence was immediately read on a MSD Spector® instrument. Data analysis was performed using GraphPad Prism™ software. Statistical significance within the groups was determined by one-way Anova with Turkey's multiple comparison post-test and standard error of mean (SEM±) calculated.

[6] = tested on: human monocyte derived-DC; test: Ex vivo LPS-induced cytokine production in human monocyte derived DCs; format: cell-based; parameters: IL-6 / IL-8 / TNF-a / IL-12p70 / IL-1b: unit not given here
Description: The complete-RPMI with IL4 and GM-CSF was changed every three days. […]
as §1

[7] = male, C57BL/6, mouse, ip, 1 mg/kg

## CCCC1O[C@@H]2C[C@H]3[C@@H]4C[C@H](F)C5=CC(=O)C=C[C@]5(C)[C@@]4(F)[C@@H](O)C[C@]3(C)[C@]2(C(=O)CN)O1 (stereo partly drawn) [Compound 4b, (1S,2S,4R,6R,8S,9S,11S,12R,13S,19S)-8-(2-Aminoacetyl)-12,19-difluoro-11-hydroxy-9,13-dimethyl-6-propyl-5,7-dioxapentacyclo[10.8.0.0^2,90.0^4,80.0^13,18]icosa-14,17-dien-16-one; trifluoroacetic Acid Salt]
[1]; 293/PRLR/GRE-Luc cells, 72 hours
  EC50 of GRE-Luc activation: better IC50 value than Budesonide and Dexamethasone
[1]; HEK293, read-out: EC50 in 293/PRLR/GRE-Luc (M), 72 hrs of incubation
  EC50: < 5e-09 M
[1]; HEK293, read-out: HEK293/9xUAS-Luc2P/pBind-GR/PRLR-HA high cells EC50
  EC50: < 1e-08 M
[1]; fold activation vs Budesonide
  HEK293/9xUAS-Luc2P/pBind-GR/PRLR-HA high cells activation relative to Budesonide: Full
[2]
  EC50: < 5e-09 M
[3]; [7]
  AUC(0-inf): 89.2 ng·h/mL
  AUC(0-t): 84.6 ng·h/mL
  Cmax: 39.4 ng/mL
[3]; mouse, IP, 1 mg/Kg in male C57BL/6 mice, Mean, read-out: Terminal t1/2 (converted)
  half-life: 1.69 h
[4]; 5 mpk ip before LPS challenge, plasma at 2 hr time point
  Inhibition of TNF-α production: significantly inhibited TNF-α production
[4]; plasma 2 hr post LPS challenge, 5MPK ip (−2 h) prior to LPS, individual mice, trifluoroacetic Acid Salt
  TNF-a: 56.5 pg/mL and 10.4 pg/mL and 274.8 pg/mL
[5]; 10 nM + LPS
  IL-1b: 6.32 ± 0.83
  IL-6: 184.54 ± 21.59
  IL-12p70: 3.84 ± 2.88
  KC-GRO: 186.57 ± 15.71
  TNF-a: 146.46 ± 18.66
[5]; 10 nM and 100 nM for 24 hours before LPS 10 ng/mL
  LPS-induced cytokine responses in CD11c+ DCs: significantly decreased LPS-induced cytokine responses
[5]; 10 nM, no LPS
  IL-1b: 5.22 ± 0.11
  IL-6: 47.90 ± 4.55
  IL-12p70: 5.24 ± 1.12
  KC-GRO: 62.85 ± 6.51
  TNF-a: 0 ± 0
[5]; 100 nM + LPS
  IL-1b: 4.80 ± 0.99
  IL-6: 201.10 ± 20.96
  IL-12p70: 8.21 ± 2.79
  KC-GRO: 211.96 ± 25.23
  TNF-a: 193.29 ± 25.56
[5]; 100 nM, no LPS
  IL-1b: 5.65 ± 0.18
  IL-6: 63.87 ± 4.78
  IL-12p70: 6.43 ± 0.67
  KC-GRO: 84.30 ± 6.06
  TNF-a: 0 ± 0
[6]; Condition 1: entire 7-day conditioning period
  Pro-inflammatory cytokine production: significantly reduced pro-inflammatory cytokine production
[6]; Condition 1, 10 nM + LPS
  IL-1b: 1.18 ± 0.11
  IL-6: 325.46 ± 2.12
  IL-8: 8670.27 ± 268.97
  IL-12p70: 1.05 ± 0.08
  TNF-a: 117.75 ± 6.63
[6]; Condition 1, 10 nM, no LPS
  IL-1b: 0.61 ± 0.007
  IL-6: 2.23 ± 0.002
  IL-8: 166.99 ± 2.01
  IL-12p70: 0.58 ± 0.002
  TNF-a: 1.28 ± 0.087
[6]; Condition 1, 100 nM + LPS
  IL-1b: 1.01 ± 0.07
  IL-6: 159.32 ± 7.31
  IL-8: 8461.59 ± 522.77
  IL-12p70: 0.50 ± 0.19
  TNF-a: 123.31 ± 0.11
[6]; Condition 1, 100 nM, no LPS
  IL-1b: 0.641 ± 0.15
  IL-6: 3.45 ± 0.13
  IL-8: 136.50 ± 0.87
  IL-12p70: 0.66 ± 0.03
  TNF-a: 1.46 ± 0.10
[6]; Condition 2: conditioning of mature monocyte-derived DCs
  Production of IL12p70, IL6 and TNF-α: significantly decreased the production of IL12p70, IL6 and TNF-α
[6]; Condition 2, 10 nM + LPS
  IL-1b: 30.10 ± 0.93
  IL-6: 5124.75 ± 114.8
  IL-8: 3003.52 ± 212.16
  IL-12p70: 4.81 ± 0.63
  TNF-a: 874.18 ± 30.46
[6]; Condition 2, 10 nM, no LPS
  IL-1b: 0.59 ± 0.005
  IL-6: 12.87 ± 0.312
  IL-8: 274.75 ± 1.75
  IL-12p70: 0.60 ± 0.01
  TNF-a: 2.03 ± 0.14
[6]; Condition 2, 100 nM + LPS
  IL-1b: 18.20 ± 1.04
  IL-6: 4680.03 ± 104.90
  IL-8: 2735.36 ± 87.88
  IL-12p70: 2.03 ± 0.16
  TNF-a: 696.26 ± 75.10
[6]; Condition 2, 100 nM, no LPS
  IL-1b: 0.59 ± 0.03
  IL-6: 11.25 ± 0.82
  IL-8: 317.46 ± 14.83
  IL-12p70: 0.61 ± 0.02
  TNF-a: 1.37 ± 0.251
